Measured values: the supplement of paper PMC6045584
± gives the standard deviation of the averaged measurements.

Tests used:
[1] = compound: COc1ccc(C2=N[C@@H](c3ccc(Cl)cc3)[C@@H](c3ccc(Cl)cc3)N2C(=O)N2CCNC(=O)C2)c(OC(C)C)c1 [NUTLIN3]; assay: surviving fraction relative to DMSO-only wells; higher = less growth inhibition; settings: exposure time: 5 days
Procedure, shortened: (§1)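 A line counted only if its three screens reached replicate Pearson r >0.7 and median Z' >0.3. Tumour cells in log phase were seeded at 250–500 per well in 384-well plates and, after 24 hours, kept in continuous contact with inhibitors at 0.5, 1, 5, 10, 50, 100, 500 and 1000 nM for five days. Surviving fraction was taken from CellTiter-Glo luminescence relative to the median of DMSO-only wells.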

[2] = compound: Nc1ncn([C@H]2C[C@H](O)[C@@H](CO)O2)c(=O)n1 [DECITABINE]; assay: as above; settings: exposure time: 5 days
Procedure, shortened: as §1

| Test System | surviving fraction ([1]; 0.5 nM) | surviving fraction ([1]; 1 nM) | surviving fraction ([1]; 5 nM) | surviving fraction ([1]; 10 nM) | surviving fraction ([1]; 50 nM) | surviving fraction ([1]; 100 nM) | surviving fraction ([1]; 500 nM) | surviving fraction ([1]; 1000 nM) | surviving fraction ([2]; 0.5 nM) | surviving fraction ([2]; 1 nM) | surviving fraction ([2]; 5 nM) | surviving fraction ([2]; 10 nM) | surviving fraction ([2]; 50 nM) | surviving fraction ([2]; 100 nM) | surviving fraction ([2]; 500 nM) | surviving fraction ([2]; 1000 nM) |
| --- | --- | --- | --- | --- | --- | --- | --- | --- | --- | --- | --- | --- | --- | --- | --- | --- |
| SCC90 HEADNECK | 1.05 ± 0.051 | 1.04 ± 0.22 | 1.13 ± 0.15 | 1.11 ± 0.23 | 1.12 ± 0.12 | 1.02 ± 0.026 | 0.997 ± 0.098 | 1.04 ± 0.098 | 0.985 ± 0.073 | 0.995 ± 0.065 | 1.11 ± 0.075 | 1.03 ± 0.072 | 1.13 ± 0.074 | 1.11 ± 0.018 | 1.3 ± 0.25 | 1.05 ± 0.17 |
| 93VU HEADNECK | 1 ± 0.12 | 0.982 ± 0.14 | 1.09 ± 0.1 | 1.1 ± 0.076 | 1.12 ± 0.12 | 1.21 ± 0.013 | 1.05 ± 0.12 | 1.02 ± 0.025 | 1.12 ± 0.086 | 1.09 ± 0.1 | 1.14 ± 0.12 | 1 ± 0.015 | 0.931 ± 0.035 | 0.933 ± 0.017 | 0.747 ± 0.03 | 0.657 ± 0.007 |
| MDAMB436 BREAST | 0.91 ± 0.076 | 0.835 ± 0.092 | 0.923 ± 0.033 | 0.928 ± 0.063 | 0.924 ± 0.074 | 0.895 ± 0.12 | 0.881 ± 0.041 | 0.941 ± 0.074 | 1.11 ± 0.084 | 1.06 ± 0.079 | 1 ± 0.12 | 0.949 ± 0.09 | 0.927 ± 0.11 | 0.823 ± 0.064 | 0.796 ± 0.048 | 0.685 ± 0.032 |
| LNCAP PROSTATE | 1.03 ± 0.034 | 1.01 ± 0.078 | 0.955 ± 0.065 | 1 ± 0.086 | 0.956 ± 0.073 | 0.803 ± 0.089 | 0.491 ± 0.12 | 0.289 ± 0.011 | 0.917 ± 0.037 | 1.02 ± 0.11 | 0.954 ± 0.083 | 1.01 ± 0.11 | 0.785 ± 0.02 | 0.695 ± 0.1 | 0.634 ± 0.044 | 0.522 ± 0.0079 |
| MHM BONE | 0.995 ± 0.017 | 0.998 ± 0.019 | 1.03 ± 0.028 | 1.02 ± 0.024 | 1.01 ± 0.023 | 1.02 ± 0.046 | 0.963 ± 0.018 | 0.9187 ± 0.0085 | 1 ± 0.029 | 1 ± 0.07 | 1.02 ± 0.04 | 1.02 ± 0.062 | 1.05 ± 0.044 | 1.02 ± 0.023 | 1.08 ± 0.042 | 1.04 ± 0.038 |
| CME SYNOVIAL | 1.18 ± 0.1 | 1.29 ± 0.17 | 1.32 ± 0.16 | 1.24 ± 0.13 | 1.36 ± 0.16 | 1.44 ± 0.19 | 1.4 ± 0.073 | 1.22 ± 0.09 | 1.27 ± 0.17 | 1.09 ± 0.072 | 1.19 ± 0.081 | 1.19 ± 0.089 | 0.987 ± 0.083 | 0.812 ± 0.063 | 0.484 ± 0.022 | 0.48 ± 0.042 |
| OSHN BONE | 1.06 ± 0.036 | 1.05 ± 0.057 | 1.06 ± 0.034 | 1.05 ± 0.044 | 1.09 ± 0.058 | 1.07 ± 0.033 | 1.08 ± 0.034 | 1.07 ± 0.029 | 1.08 ± 0.015 | 1.06 ± 0.028 | 1.11 ± 0.024 | 1.07 ± 0.032 | 1.17 ± 0.03 | 1.17 ± 0.017 | 1.22 ± 0.022 | 1.112 ± 0.0035 |
| MCF7 BREAST | 0.881 ± 0.036 | 0.841 ± 0.038 | 0.819 ± 0.013 | 0.821 ± 0.038 | 0.939 ± 0.021 | 0.952 ± 0.051 | 0.865 ± 0.013 | 0.85 ± 0.039 | 0.932 ± 0.022 | 0.906 ± 0.065 | 0.887 ± 0.02 | 0.803 ± 0.02 | 0.843 ± 0.04 | 0.861 ± 0.026 | 0.842 ± 0.034 | 0.83 ± 0.043 |
| CAL51 BREAST | 0.944 ± 0.012 | 0.928 ± 0.059 | 0.999 ± 0.053 | 0.979 ± 0.018 | 1.05 ± 0.054 | 1.01 ± 0.038 | 0.816 ± 0.1 | 0.707 ± 0.09 | 1.03 ± 0.028 | 0.98 ± 0.034 | 1 ± 0.041 | 0.952 ± 0.046 | 0.95 ± 0.12 | 0.865 ± 0.15 | 0.586 ± 0.077 | 0.481 ± 0.021 |
| SUM149.B1*.S BREAST | 1.03 ± 0.045 | 1.07 ± 0.0015 | 1.05 ± 0.011 | 1.07 ± 0.022 | 1.13 ± 0.037 | 1.12 ± 0.017 | 1.14 ± 0.024 | 1.11 ± 0.04 | 1.09 ± 0.037 | 1.03 ± 0.044 | 1.05 ± 0.06 | 0.98 ± 0.058 | 0.749 ± 0.062 | 0.66 ± 0.062 | 0.553 ± 0.043 | 0.496 ± 0.061 |
| MDAMB134 BREAST | 1.03 ± 0.011 | 0.923 ± 0.0071 | 1.013 ± 0.0085 | 0.84 ± 0.11 | 1.125 ± 0.0021 | 1.07 ± 0.032 | 1.021 ± 0.0042 | 0.896 ± 0.028 | 0.979 ± 0.082 | 1.06 ± 0.26 | 1.04 ± 0.1 | 1.02 ± 0.023 | 1.1 ± 0.12 | 1.25 ± 0.059 | 1.15 ± 0.042 | 1.22 ± 0.016 |
| YAMATO SYNOVIAL | 1.42 ± 0.029 | 1.32 ± 0.13 | 1.43 ± 0.1 | 1.36 ± 0.1 | 1.5 ± 0.061 | 1.41 ± 0.15 | 1.4 ± 0.086 | 1.27 ± 0.13 | 1.26 ± 0.05 | 1.11 ± 0.081 | 1.17 ± 0.086 | 0.995 ± 0.098 | 1.02 ± 0.081 | 1.04 ± 0.034 | 0.907 ± 0.034 | 0.811 ± 0.035 |
| C33A CERVIX | 0.888 ± 0.04 | 0.928 ± 0.034 | 0.919 ± 0.084 | 0.905 ± 0.039 | 0.978 ± 0.094 | 1.04 ± 0.055 | 0.959 ± 0.068 | 1.03 ± 0.094 | 0.969 ± 0.043 | 0.941 ± 0.064 | 0.963 ± 0.045 | 1.06 ± 0.036 | 0.9227 ± 0.0078 | 0.909 ± 0.075 | 0.697 ± 0.1 | 0.685 ± 0.082 |
| MDAMB453 BREAST | 1.02 ± 0.053 | 1.05 ± 0.029 | 1.07 ± 0.053 | 1.08 ± 0.024 | 1.13 ± 0.083 | 1.13 ± 0.13 | 1.04 ± 0.066 | 1.05 ± 0.035 | 1.04 ± 0.053 | 1.04 ± 0.032 | 1.05 ± 0.093 | 1.07 ± 0.062 | 1.05 ± 0.061 | 1.02 ± 0.059 | 0.88 ± 0.015 | 0.757 ± 0.053 |
| VCAP PROSTATE | 1.03 ± 0.066 | 1.13 ± 0.049 | 1.17 ± 0.088 | 1.25 ± 0.2 | 1.18 ± 0.24 | 1.18 ± 0.023 | 1.03 ± 0.14 | 1.11 ± 0.027 | 1.11 ± 0.099 | 1.17 ± 0.031 | 1.25 ± 0.14 | 1.18 ± 0.095 | 1.09 ± 0.035 | 1.09 ± 0.11 | 1.01 ± 0.094 | 0.875 ± 0.062 |
| HOS BONE | 1.011 ± 0.0078 | 1.03 ± 0.014 | 1.008 ± 0.01 | 0.994 ± 0.02 | 1.06 ± 0.02 | 1.05 ± 0.01 | 1.057 ± 0.0091 | 1.09 ± 0.021 | 1.01 ± 0.039 | 1.02 ± 0.018 | 1.03 ± 0.031 | 0.995 ± 0.011 | 1.06 ± 0.015 | 1.02 ± 0.015 | 0.8753 ± 0.0038 | 0.731 ± 0.029 |
| VP229 BREAST | 1.16 ± 0.12 | 1.08 ± 0.21 | 1.21 ± 0.029 | 0.944 ± 0.17 | 0.972 ± 0.065 | 1.04 ± 0.082 | 1.13 ± 0.09 | 0.975 ± 0.037 | 1.09 ± 0.062 | 1.13 ± 0.093 | 0.996 ± 0.13 | 0.952 ± 0.11 | 0.966 ± 0.067 | 0.959 ± 0.028 | 0.871 ± 0.056 | 0.798 ± 0.097 |
| HCT15 LARGE INTESTINE | 1.01 ± 0.038 | 1.01 ± 0.013 | 1.01 ± 0.018 | 0.992 ± 0.013 | 1.05 ± 0.034 | 1.07 ± 0.061 | 1.04 ± 0.056 | 1.01 ± 0.017 | 1 ± 0.02 | 0.982 ± 0.056 | 0.967 ± 0.021 | 0.961 ± 0.017 | 1.05 ± 0.032 | 0.987 ± 0.032 | 0.835 ± 0.026 | 0.893 ± 0.032 |
| HOSMNG BONE | 1.04 ± 0.056 | 1.03 ± 0.033 | 0.979 ± 0.098 | 0.975 ± 0.076 | 1.09 ± 0.025 | 1.12 ± 0.013 | 1.12 ± 0.026 | 1.13 ± 0.023 | 1.04 ± 0.043 | 1.03 ± 0.057 | 1.02 ± 0.061 | 1.02 ± 0.072 | 1.1 ± 0.036 | 1.12 ± 0.086 | 1.1 ± 0.12 | 1.11 ± 0.046 |
| HUO3N1 BONE | 1.07 ± 0.046 | 0.988 ± 0.032 | 1.039 ± 0.0087 | 1 ± 0.034 | 1.09 ± 0.032 | 1.03 ± 0.032 | 1.01 ± 0.068 | 1.04 ± 0.033 | 0.958 ± 0.022 | 0.99 ± 0.024 | 1.03 ± 0.056 | 1.05 ± 0.019 | 1.04 ± 0.022 | 1 ± 0.014 | 0.901 ± 0.017 | 0.879 ± 0.025 |
| KPD BONE | 0.968 ± 0.042 | 0.966 ± 0.049 | 1.05 ± 0.064 | 0.987 ± 0.023 | 1.03 ± 0.061 | 1.01 ± 0.098 | 1.01 ± 0.017 | 0.962 ± 0.075 | 0.916 ± 0.057 | 0.919 ± 0.053 | 0.801 ± 0.022 | 0.692 ± 0.056 | 0.534 ± 0.023 | 0.464 ± 0.012 | 0.379 ± 0.026 | 0.353 ± 0.044 |
